US7897371B2, “Activation of mutated RAC-PK” (Novartis AG, priority 1995, dated 2011)
Where “and” joins values, the source holds several entries; their conditions need not be identical. Equal values may be shown once. Read-outs that look alike come from different tables or passages of the source. No end group written: not given here.

How the values were obtained:
RAC-PK = RAC-PK activity immunoprecipitated from Swiss 3T3 cells (MBP substrate); format: cell-based; details: for Increase in RAC-PK activity: Swiss 3T3 cells, 1 μM okadaic acid, 0.1 mM vanadate, insulin or 10% FCS
RAC-PKα [1] = target: RAC-PKα (Homo sapiens, UniProt P31749)
RAC-PKα (Homo sapiens, UniProt P31749), sequence (P31749 whole entry): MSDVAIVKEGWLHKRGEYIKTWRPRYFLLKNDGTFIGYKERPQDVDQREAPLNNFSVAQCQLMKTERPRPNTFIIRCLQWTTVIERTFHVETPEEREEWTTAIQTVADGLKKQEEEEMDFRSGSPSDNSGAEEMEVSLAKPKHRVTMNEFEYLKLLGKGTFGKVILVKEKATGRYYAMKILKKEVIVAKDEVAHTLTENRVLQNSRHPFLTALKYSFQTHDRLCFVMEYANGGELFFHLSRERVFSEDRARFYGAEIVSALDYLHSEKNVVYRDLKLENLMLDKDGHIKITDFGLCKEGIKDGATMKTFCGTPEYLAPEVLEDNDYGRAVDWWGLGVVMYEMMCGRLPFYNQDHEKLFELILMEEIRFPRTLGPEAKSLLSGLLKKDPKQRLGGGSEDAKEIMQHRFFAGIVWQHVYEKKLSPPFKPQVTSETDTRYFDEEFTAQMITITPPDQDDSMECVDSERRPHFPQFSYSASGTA

GSK3β = format: cell-based, human
GSK3β, sequence (P49841 whole entry): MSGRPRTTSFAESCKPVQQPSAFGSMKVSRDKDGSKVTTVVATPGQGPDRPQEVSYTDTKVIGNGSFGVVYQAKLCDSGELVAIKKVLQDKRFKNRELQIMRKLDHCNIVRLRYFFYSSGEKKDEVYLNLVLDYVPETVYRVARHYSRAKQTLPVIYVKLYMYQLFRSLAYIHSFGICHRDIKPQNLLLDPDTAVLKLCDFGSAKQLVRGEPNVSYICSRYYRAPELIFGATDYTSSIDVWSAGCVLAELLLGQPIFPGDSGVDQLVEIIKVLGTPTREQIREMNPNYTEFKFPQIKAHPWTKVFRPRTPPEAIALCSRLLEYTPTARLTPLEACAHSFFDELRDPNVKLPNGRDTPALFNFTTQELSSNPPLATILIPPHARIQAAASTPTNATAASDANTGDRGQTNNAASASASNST

RAC-PKα [2] = format: cell-based, human
p70 S6 kinase = target: T1, p70 S6 kinase (Rattus norvegicus, UniProt P67999); details: read-out: Km for phosphorylation by p70 S6 kinase; cited from earlier work
T1 construct: from tissue; host or cells: rat liver
T1 sequence (P67999 24-525): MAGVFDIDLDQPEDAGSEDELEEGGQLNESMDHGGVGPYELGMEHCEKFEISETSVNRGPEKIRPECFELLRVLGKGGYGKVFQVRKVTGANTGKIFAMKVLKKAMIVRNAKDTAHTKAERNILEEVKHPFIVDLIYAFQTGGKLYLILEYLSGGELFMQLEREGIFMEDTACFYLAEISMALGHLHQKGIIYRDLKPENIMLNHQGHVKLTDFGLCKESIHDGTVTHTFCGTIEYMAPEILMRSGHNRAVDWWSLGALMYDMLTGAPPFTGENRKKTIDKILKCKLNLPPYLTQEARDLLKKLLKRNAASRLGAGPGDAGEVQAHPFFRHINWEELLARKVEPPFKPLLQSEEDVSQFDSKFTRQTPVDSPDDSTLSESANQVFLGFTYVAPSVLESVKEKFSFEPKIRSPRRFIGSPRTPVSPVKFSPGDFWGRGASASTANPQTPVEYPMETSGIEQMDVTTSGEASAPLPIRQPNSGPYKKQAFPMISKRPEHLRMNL

For `C=C1[C@@H](O)[C@@H]2O[C@]3(CC[C@H](/C=C/[C@@H](C)[C@@H]4CC(C)=C[C@@]5(O[C@H](C[C@@](C)(O)C(=O)O)CC[C@H]5O)O4)O3)CC[C@H]2O[C@@H]1[C@@H](O)C[C@H](C)[C@H]1O[C@@]2(CCCCO2)CC[C@H]1C` [okadaic acid], the “Activation of RAC-PK” value (RAC-PK; Swiss 3T3, simultaneous 1 μM okadaic acid and 10% serum) was 5 fold and the “Increase in RAC-PK activity” value (RAC-PK) was 3 fold.

For `[O]=[V]([O-])([O-])[O-]` [vanadate], the “Increase in RAC-PK activity” value (RAC-PK) was 11 fold.

Work on GRPRTSSFAEG yielded a Km (RAC-PKα [1]; phosphorylation by RAC-PKα) of 4 µM.

With “HA-KD-RAC-PKα: kinase dead mutant, Lys179 changed to Ala” the “Increase in GSK3 activity on PP2A treatment” value (GSK3β) was about 12%.

With IGF-1 the “Activation of transfected RAC-PKα” value (RAC-PKα [2]) was 46 fold and 38 fold and the “Half time for activation of transfected RAC-PKα” value (RAC-PKα [2]) was 1 min.

In the case of KKRNRTLSVA, the Km (p70 S6 kinase) is listed as 1.5 µM.

Work on KPRTSSF [KPRTSSF] yielded a Km (RAC-PKα [1]; phosphorylation by RAC-PKα) of over 500 µM.

In the case of RFRGGSF, the Km (RAC-PKα [1]) is reported as 105 µM, the “V (0.1 mM)” value (RAC-PKα [1]) is reported as 55 and the “Vmax (U/mg)” value (RAC-PKα [1]) is reported as 345 U/mg.

Molecule RPKTSSF [RPKTSSF] has a Km (RAC-PKα [1]; phosphorylation by RAC-PKα) of over 500 µM.

For RPRASSF, the Km (RAC-PKα [1]) was 12 µM, the “V (0.1 mM)” value (RAC-PKα [1]) was 89 and the “Vmax (U/mg)” value (RAC-PKα [1]) was 230 U/mg.

RPRNSSF [RPRNSSF] showed a Km (RAC-PKα [1]; phosphorylation by RAC-PKα) of over 500 µM.

For RPRTASF, the Km (RAC-PKα [1]) was 20 µM, the “V (0.1 mM)” value (RAC-PKα [1]) was 83 and the “Vmax (U/mg)” value (RAC-PKα [1]) was 213 U/mg.

Work on RPRTSS [RPRTSS] yielded a Km (RAC-PKα [1]; phosphorylation by RAC-PKα) of over 500 µM.

RPRTSSE [RPRTSSE] showed a Km (RAC-PKα [1]; phosphorylation by RAC-PKα) of over 500 µM.

With RPRTSSF [RPRTSSF] the Km (RAC-PKα [1]; phosphorylation by RAC-PKα) was 5 µM.

With RPRTSTF [RPRTSTF] the Km (RAC-PKα [1]; phosphorylation by RAC-PKα) was 30 µM.

B1: MBP: myelin basic protein, kinase assay substrate (protein, UniProt P02687 1-169, looked up)
Myelin basic protein: AAQKRPSQRSKYLASASTMDHARHGFLPRHRDTGILDSLGRFFGSDRGAPKRGSGKDGHHAARTTHYGSLPQKAQGHRPQDENPVVHFFKNIVTPRTPPPSQGKGRGLSLSRFSWGAEGQKPGFGYGGRASDYKSAHKGLKGHDAQGTLSKIFKLGGRDSRSGSPMARR
For B1, the Km (RAC-PKα [1]) was 5 µM and the “Vmax (U/mg)” value (RAC-PKα [1]) was 25 U/mg.
